Experimental data taken from patent US20240262812A1, “N-SUBSTITUTED PHENYLSULFONAMIDE COMPOUND AND USE THEREOF” (Shanghai Leado Pharmatech Co., Ltd., priority 2021, published 2024).

What was measured:
[1] = system: DNBS induced colitis in Wistar rats; assay: DNBS induced colitis model in Wistar rats; assay type: in vivo, rat; set-up: Degree of adhesion (score) / Degree of intestinal infarction (score) / Severity of ulcer (score) / Degree of intestinal wall thickening (score) / Macroscopic colon score: scale not given here; conditions: oral once a day Day 0 to Day 6, compounds 10 mg/kg, osalazine sodium 300 mg/kg
From the text: The therapeutic effect of compounds prepared in some examples of the present invention on 2,4-dinitrobenzenesulfonic acid (DNBS) induced ulcerative colitis in Wistar rats (corresponding to Crohn's disease) was investigated.
• Animal species and strains: Wistar rats • Administration record: No administration history • Gender and weight: Male, about 150 g • Breeding party/supplier: Shanghai SLAC Laboratory Animal Co., Ltd • Adaptation period: 5 days • Room: Regular Area Rooms • Indoor temperature: 20-26° C. • Indoor relative humidity: 40-70% • Lighting: Fluorescent lighting, 12-hour illumination (08:00-20:00) and 12-hour no illumination • Animal feeding: 2-4 rats per cage (same administration group) • Food: Unlimited access to feed (disinfected by irradiation, Jiangsu Xietong Pharmaceutical Bio-engineering Co., Ltd., China) • Water: Unlimited access to drinking water (treated with reverse osmosis and high-pressure sterilization)
A total of 80 Wistar rats were purchased from Shanghai SLAC Laboratory Animal Co., Ltd, of which 10 were used as backup animals to select animals with suitable weight range included in the groups, in order to control the fluctuation of disease severity caused by weight fluctuations.
BioBook software was used to screen 70 animals for random grouping based on animal weight to ensure that the weight values of each group of animals were similar to reduce bias.
3.1 DNBS powder was dissolved in 30% ethanol with a final concentration of 60 mg/mL.
3.2 Induction of colorectal inflammation: Before the experiment, rats were fasted for 40 hours and subcutaneously injected with 5% glucose saline during the fasting period. On the day 0 of the experiment, fasting rats were anesthetized by intraperitoneal injection of Zoletil and 5 mg/kg Xylazine. G2 group-G7 group, a hose was extended from the anus to the left curvature of the colorectum, and colorectal inflammation in rats was induced with DNBS enema. The normal control group (G1) was treated with 30% ethanol enema using the same method.
3.3. Dosage regimen: After DNBS induction in G1 and G2 groups of animals, solvent was administered. After DNBS induction in G3 group, 300 mg/kg of oxalazine sodium was administered. After DNBS induction in G4 to G7 groups, 10 mg/kg of the compounds of the present invention were administered respectively. Please refer to Table 3 for the administration time, specific administration dosage, and administration route. Starting from day 0 of modeling, the drugs were administered continuously for 7 days, and the animals were euthanized on day 6.
3.4 Testing indicators: After the experiment, all animals were euthanized by inhaling excessive CO2 and dislocation of cervical vertebra. After the abdominal cavity was cut open, the colorectum was taken out and the length of it was immediately measured. Then the colorectum was longitudinally cut open and rinsed clean. The weight of the colorectum and the area of the ulcer were recorded and the whole was photographed. At the same time, the damage to the rat colorectum was evaluated macroscopically according to Table 4.
The health status of animals and their comprehensive response to surgery and medication were observed every day.
The experimental data was calculated as mean±standard error. Statistical analysis was performed using Graphpad Prism, SPSS, or Sigmaplot software. The specific data is presented in the form of charts. P<0.05 is considered to have statistical differences.

[2] = system: DNBS, TNBS, or DSS induced colitis; conditions: administration of selective TRPA1 inhibitor; background; cited from earlier work
[3] = system: acute gastric mucosal injury; conditions: background; cited from earlier work

| Compound | Degree of adhesion (score) ([1]; mean score per Table 4) | Degree of intestinal infarction (score) ([1]; mean score per Table 4) | Degree of intestinal wall thickening (score) ([1]; mean score per Table 4) | Severity of ulcer (score) ([1]; mean score per Table 4) | Macroscopic colon score ([1]; mean total score) | Colon length ([1]; mean) [cm] | Colon weight ([1]; mean) | Ulcer area ([1]; mean) | Ulcer length ([1]; mean) [cm] | Ulcer width ([1]; mean) [cm] | symptom of colitis in animals [2] | result in rat model of acute gastric mucosal injury [3] |
| --- | --- | --- | --- | --- | --- | --- | --- | --- | --- | --- | --- | --- |
| O=C([O-])c1cc(/N=N/c2ccc(O)c(C(=O)[O-])c2)ccc1O.[Na+].[Na+] [osalazine sodium, reference compound] | 0.00 | 0.00 | 0.40 | 1.50 | 1.90 | 14.33 | 1.41 g | 0.30 cm^2 | 0.71 | 0.34 | – | – |
| O=C([O-])c1cc(/N=N/c2ccc(O)c(C(=O)[O-])c2)ccc1O.[Na+].[Na+] [oxalazine sodium, reference compound] | – | – | – | – | – | – | significantly reduce | significantly reduce | – | – | – | – |
| CC(C)c1ccc(NC(=O)Cn2cnc3c2c(=O)n(C)c(=O)n3C)cc1 [HC-030031, HC030031] | – | – | – | – | – | – | – | – | – | – | significantly alleviated the symptom of colitis in animals | showed positive result |
